Laboratory results published in PubChem BioAssay (NCI).
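How tested: cells in 96-well plates exposed to compound for 48 hours at five concentrations. TGI marks complete inhibition of growth.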

Assays:
Assay in all cases: inhibition of tumour cell growth, NCI panel, 48 h
RPMI-8226 leukemia = system: RPMI-8226 leukemia
BT-549 breast = system: BT-549 breast
PC-3 prostate = system: PC-3 prostate
A549 NSCLC = system: A549 NSCLC
SN12C renal = system: SN12C renal
COLO 205 colon = system: COLO 205 colon
SW-620 colon = system: SW-620 colon
CCRF-CEM leukemia = system: CCRF-CEM leukemia
HOP-62 NSCLC = system: HOP-62 NSCLC
MOLT-4 leukemia = system: MOLT-4 leukemia
OVCAR-8 ovarian = system: OVCAR-8 ovarian
OVCAR-5 ovarian = system: OVCAR-5 ovarian
IGROV1 ovarian = system: IGROV1 ovarian
SK-MEL-2 melanoma = system: SK-MEL-2 melanoma
OVCAR-3 ovarian = system: OVCAR-3 ovarian
OVCAR-4 ovarian = system: OVCAR-4 ovarian
HCT-15 colon = system: HCT-15 colon
NCI-H226 lung = system: NCI-H226 lung
SNB-19 CNS = system: SNB-19 CNS
NCI-H460 lung = system: NCI-H460 lung
T-47D breast = system: T-47D breast
UO-31 renal = system: UO-31 renal
SK-MEL-28 melanoma = system: SK-MEL-28 melanoma
HCC-2998 colon = system: HCC-2998 colon
SR leukemia = system: SR leukemia
HT29 colon = system: HT29 colon
MDA-N = system: MDA-N
DU-145 prostate = system: DU-145 prostate
ACHN renal = system: ACHN renal
RXF 393 renal = system: RXF 393 renal
NCI/ADR-RES ovarian = system: NCI/ADR-RES ovarian
CAKI-1 renal = system: CAKI-1 renal
HL-60(TB) leukemia = system: HL-60(TB) leukemia
SK-MEL-5 melanoma = system: SK-MEL-5 melanoma
LOX IMVI melanoma = system: LOX IMVI melanoma
EKVX NSCLC = system: EKVX NSCLC
MDA-MB-231 breast = system: MDA-MB-231 breast
HOP-92 NSCLC = system: HOP-92 NSCLC
SK-OV-3 ovarian = system: SK-OV-3 ovarian
HCT-116 colon = system: HCT-116 colon
M14 melanoma = system: M14 melanoma
SF-268 CNS = system: SF-268 CNS
UACC-257 melanoma = system: UACC-257 melanoma
SF-539 CNS = system: SF-539 CNS
K-562 leukemia = system: K-562 leukemia
NCI-H23 lung = system: NCI-H23 lung
UACC-62 melanoma = system: UACC-62 melanoma
TK-10 renal = system: TK-10 renal
U251 CNS = system: U251 CNS
SF-295 CNS = system: SF-295 CNS
MALME-3M melanoma = system: MALME-3M melanoma
MDA-MB-435 = system: MDA-MB-435
KM12 colon = system: KM12 colon
HS 578T breast = system: HS 578T breast
786-0 renal = system: 786-0 renal
SNB-75 CNS = system: SNB-75 CNS
MCF7 breast = system: MCF7 breast
A498 renal = system: A498 renal
NCI-H522 lung = system: NCI-H522 lung

Measured: TGI

CCOC(=O)C(NC(=O)c1ccccc1)(c1ccc(S(=O)(=O)Nc2onc(C)c2C)cc1)C(F)(F)F (configuration not stated)
not listed: A498 renal | NCI-H522 lung
> 100 µM: all other assays above

C=CCc1cccc2cc(C(=O)Nc3ccc(C)cc3)c(=N)oc12
not listed: UO-31 renal | SF-539 CNS | TK-10 renal | SF-295 CNS
> 100 µM: all other assays above
